This note sets out measurements from PubChem BioAssay (NCI).

SMILES strings stand for the structures. Values joined by “and” are separate entries in the source; they are usually repeats but may differ in a detail not shown here. Equal entries are not always repeated.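 Briefly, cells in 96-well plates were exposed to five compound concentrations for 48 h, and endpoints were estimated by linear interpolation. The concentration for 50% growth inhibition is given as GI50. TGI: concentration producing complete growth inhibition.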 A value given as a limit tells only on which side of the number the result lay.

In the first assay the test system is CAKI-1 renal. In words: inhibition of tumour cell growth, NCI panel, 48 h.
`CC1(C)OC2COC3(CNO)OC(C)(C)OC3C2O1` (centres undefined) gave a TGI of over 100 µM.
Take `CCOC(=O)C(=O)Nc1ccccc1C(F)(F)F`: the TGI was over 100 µM.
Still for that read-out and setting: then `Cc1ccccc1Nc1nc2c(s1)C(=O)c1ccccc1C2=O`, with 30.3 µM.
On the same count and under the same terms, then `Cc1nnc(N/N=C(/C(=O)C(C#N)c2ccccc2)C(C#N)c2ccccc2)n1N` (centres undefined), with over 56 µM; and `COc1c(Br)cc(Br)c(OC)c1-c1[nH]c(Br)c(Br)c1Br`, with 9.1 µM.
In the case of `COc1ccc(/C=C2/CCc3cc4ccc(OC)cc4[o+]c32)c(O)c1`, the GI50 was 10.7 µM and the TGI stood at 22.5 µM.
The matching figures for `OB1OCc2cc(/C=C/c3cccc(C(F)(F)F)c3)ccc21`: 0.349 µM and 10.2 µM.
The compound `CCOC(=O)c1ccc(N[C@@H]2c3cc4c(cc3C(C3=CC(=O)C(=O)C(OC)=C3)[C@H]3C(=O)OCC32)OCO4)cc1` (some centres undefined) displayed a TGI of 11.5 µM.
On the same count and under the same terms, for `CNC(SC)=C1C(=O)OC(C)(C)OC1=O` the value was over 100 µM; for `CC(=O)NNc1nc(C)c(C(=O)NNC(=O)C(=O)Nc2nc3ccc([N+](=O)[O-])cc3s2)s1`, over 92.6 µM.
Regarding `O=C(/C=C/c1ccccc1)CC(c1ccccc1)N1CCOCC1` (centres undefined), the GI50 is 3.38 µM and the TGI stood at 12.9 µM.
On to `Cc1nc(Nc2n[nH]c3c2CN(C(=O)N[C@H](CN(C)C)c2ccccc2)C3(C)C)c2sccc2n1`, for which the TGI was > 5.08 µM and 51.9 µM.
Regarding `CC(=O)OC1COC(n2c(=S)n(-c3ccccc3)c(=O)c3cc(Br)ccc32)C(OC(C)=O)C1OC(C)=O` (centres undefined), the TGI is over 100 µM.
For `CC1=C(C(=O)Nc2ccccc2C)C(/C=C/c2ccccc2)C(C(=O)Nc2ccccc2C)=C(C)N1`, the TGI was over 100 µM.
Still for that read-out and setting: then `COc1cc2cnc3c4ccccc4ccc3c2cc1OC`, with over 100 µM.
`O=S(=O)(CCOCc1ccc(-c2ccc3ncnc(Nc4ccc(OCc5cccc(F)c5)c(Cl)c4)c3c2)o1)c1ccccc1`: the GI50 is 0.831 µM and the TGI was over 25 µM.

The subject of another assay is UACC-62 melanoma. Kind of assay: inhibition of tumour cell growth, NCI panel, 48 h.
On to `CC1(C)OC2COC3(CNO)OC(C)(C)OC3C2O1` (centres undefined), for which the TGI is over 100 µM.
The same measure, in the same setting: then `CCOC(=O)C(=O)Nc1ccccc1C(F)(F)F`, with over 100 µM; and `Cc1ccccc1Nc1nc2c(s1)C(=O)c1ccccc1C2=O`, with 10.3 µM; and `Cc1nnc(N/N=C(/C(=O)C(C#N)c2ccccc2)C(C#N)c2ccccc2)n1N` (centres undefined), with over 62.6 µM.
As to `COc1c(Br)cc(Br)c(OC)c1-c1[nH]c(Br)c(Br)c1Br`, the TGI was found to be 22.4 µM.
In the case of `COc1ccc(/C=C2/CCc3cc4ccc(OC)cc4[o+]c32)c(O)c1`, the GI50 was 5.2 µM and the TGI was 19.9 µM.
The matching figures for `OB1OCc2cc(/C=C/c3cccc(C(F)(F)F)c3)ccc21`: 0.551 µM and 63.4 µM.
`CCOC(=O)c1ccc(N[C@@H]2c3cc4c(cc3C(C3=CC(=O)C(=O)C(OC)=C3)[C@H]3C(=O)OCC32)OCO4)cc1` (some centres undefined) gave a TGI of 7.69 µM.
The compound `CNC(SC)=C1C(=O)OC(C)(C)OC1=O` yielded a TGI of over 100 µM.
Compound `CC(=O)NNc1nc(C)c(C(=O)NNC(=O)C(=O)Nc2nc3ccc([N+](=O)[O-])cc3s2)s1` displayed a TGI of over 100 µM.
Turning to `O=C(/C=C/c1ccccc1)CC(c1ccccc1)N1CCOCC1` (centres undefined), the GI50 is 9.07 µM and the TGI turned out to be 21.8 µM.
Turning to `Cc1nc(Nc2n[nH]c3c2CN(C(=O)N[C@H](CN(C)C)c2ccccc2)C3(C)C)c2sccc2n1`, the GI50 was 0.00487 µM and < 0.01 µM; the TGI was 0.154 µM.
`CC(=O)OC1COC(n2c(=S)n(-c3ccccc3)c(=O)c3cc(Br)ccc32)C(OC(C)=O)C1OC(C)=O` (centres undefined) displayed a TGI of over 100 µM.
Same read-out and setting: for `CC1=C(C(=O)Nc2ccccc2C)C(/C=C/c2ccccc2)C(C(=O)Nc2ccccc2C)=C(C)N1` the value was over 100 µM; for `COc1cc2cnc3c4ccccc4ccc3c2cc1OC`, over 100 µM.
In the case of `O=S(=O)(CCOCc1ccc(-c2ccc3ncnc(Nc4ccc(OCc5cccc(F)c5)c(Cl)c4)c3c2)o1)c1ccccc1`, the GI50 is over 25 µM and the TGI is over 25 µM.

The test system of another assay is SN12C renal. Kind of assay: inhibition of tumour cell growth, NCI panel, 48 h.
The compound `CC1(C)OC2COC3(CNO)OC(C)(C)OC3C2O1` (centres undefined) gave a TGI of over 100 µM.
Same read-out and setting: for `CCOC(=O)C(=O)Nc1ccccc1C(F)(F)F` the value was over 100 µM; for `Cc1ccccc1Nc1nc2c(s1)C(=O)c1ccccc1C2=O`, 6.32 µM; for `Cc1nnc(N/N=C(/C(=O)C(C#N)c2ccccc2)C(C#N)c2ccccc2)n1N` (centres undefined), 16.6 µM.
On the same count and under the same terms, for `COc1c(Br)cc(Br)c(OC)c1-c1[nH]c(Br)c(Br)c1Br` the value was 21.6 µM.
Consider `COc1ccc(/C=C2/CCc3cc4ccc(OC)cc4[o+]c32)c(O)c1`, for which the GI50 is 2.51 µM and the TGI was 7.93 µM.
As to `OB1OCc2cc(/C=C/c3cccc(C(F)(F)F)c3)ccc21`, the GI50 was 1.46 µM and the TGI was over 100 µM.
As to `CCOC(=O)c1ccc(N[C@@H]2c3cc4c(cc3C(C3=CC(=O)C(=O)C(OC)=C3)[C@H]3C(=O)OCC32)OCO4)cc1` (some centres undefined), the TGI is over 21.1 µM.
Same read-out and setting: then `CNC(SC)=C1C(=O)OC(C)(C)OC1=O`, with over 100 µM.
The same measure, in the same setting: then `CC(=O)NNc1nc(C)c(C(=O)NNC(=O)C(=O)Nc2nc3ccc([N+](=O)[O-])cc3s2)s1`, with over 100 µM.
For `O=C(/C=C/c1ccccc1)CC(c1ccccc1)N1CCOCC1` (centres undefined), the GI50 was 4.25 µM and the TGI is 14.8 µM.
For `Cc1nc(Nc2n[nH]c3c2CN(C(=O)N[C@H](CN(C)C)c2ccccc2)C3(C)C)c2sccc2n1`, the GI50 was 0.0193 µM and < 0.0176 µM; the TGI is > 4.66 µM and 3.84 µM.
Turning to `CC(=O)OC1COC(n2c(=S)n(-c3ccccc3)c(=O)c3cc(Br)ccc32)C(OC(C)=O)C1OC(C)=O` (centres undefined), the TGI was over 100 µM.
The compound `CC1=C(C(=O)Nc2ccccc2C)C(/C=C/c2ccccc2)C(C(=O)Nc2ccccc2C)=C(C)N1` gave a TGI of over 100 µM.
The same measure, in the same setting: then `COc1cc2cnc3c4ccccc4ccc3c2cc1OC`, with over 100 µM.
Take `O=S(=O)(CCOCc1ccc(-c2ccc3ncnc(Nc4ccc(OCc5cccc(F)c5)c(Cl)c4)c3c2)o1)c1ccccc1`: the GI50 was over 25 µM and the TGI is over 25 µM.

A further assay concerns M14 melanoma. In words: inhibition of tumour cell growth, NCI panel, 48 h.
The compound `CC1(C)OC2COC3(CNO)OC(C)(C)OC3C2O1` (centres undefined) returned a TGI of over 100 µM.
The same measure, in the same setting: then `CCOC(=O)C(=O)Nc1ccccc1C(F)(F)F`, with over 100 µM; and `Cc1ccccc1Nc1nc2c(s1)C(=O)c1ccccc1C2=O`, with 12.1 µM; and `Cc1nnc(N/N=C(/C(=O)C(C#N)c2ccccc2)C(C#N)c2ccccc2)n1N` (centres undefined), with 31.2 µM.
Still for that read-out and setting: for `COc1c(Br)cc(Br)c(OC)c1-c1[nH]c(Br)c(Br)c1Br` the value was 20.6 µM.
For the compound `COc1ccc(/C=C2/CCc3cc4ccc(OC)cc4[o+]c32)c(O)c1`, the GI50 is 3.1 µM and the TGI was 14.6 µM.
For `OB1OCc2cc(/C=C/c3cccc(C(F)(F)F)c3)ccc21`, in that order: 0.653 µM and 35.3 µM.
For `CCOC(=O)c1ccc(N[C@@H]2c3cc4c(cc3C(C3=CC(=O)C(=O)C(OC)=C3)[C@H]3C(=O)OCC32)OCO4)cc1` (some centres undefined), the TGI came to 9.96 µM.
Take `CNC(SC)=C1C(=O)OC(C)(C)OC1=O`: the TGI is over 100 µM.
In turn, `CC(=O)NNc1nc(C)c(C(=O)NNC(=O)C(=O)Nc2nc3ccc([N+](=O)[O-])cc3s2)s1` yielded a TGI of over 100 µM.
As for `O=C(/C=C/c1ccccc1)CC(c1ccccc1)N1CCOCC1` (centres undefined), the GI50 was 1.79 µM and the TGI turned out to be 3.41 µM.
Turning to `Cc1nc(Nc2n[nH]c3c2CN(C(=O)N[C@H](CN(C)C)c2ccccc2)C3(C)C)c2sccc2n1`, the GI50 was 0.0586 µM and 0.103 µM; the TGI is > 3.22 µM and 8.37 µM.
In turn, `CC(=O)OC1COC(n2c(=S)n(-c3ccccc3)c(=O)c3cc(Br)ccc32)C(OC(C)=O)C1OC(C)=O` (centres undefined) came in with a TGI of over 100 µM.
Still for that read-out and setting: for `CC1=C(C(=O)Nc2ccccc2C)C(/C=C/c2ccccc2)C(C(=O)Nc2ccccc2C)=C(C)N1` the value was over 100 µM; for `COc1cc2cnc3c4ccccc4ccc3c2cc1OC`, over 100 µM.
Take `O=S(=O)(CCOCc1ccc(-c2ccc3ncnc(Nc4ccc(OCc5cccc(F)c5)c(Cl)c4)c3c2)o1)c1ccccc1`: the GI50 is over 25 µM and the TGI is over 25 µM.

Another assay relates to SW-620 colon. Kind of assay: inhibition of tumour cell growth, NCI panel, 48 h.
For `CC1(C)OC2COC3(CNO)OC(C)(C)OC3C2O1` (centres undefined), the TGI is over 100 µM.
On the same count and under the same terms, then `CCOC(=O)C(=O)Nc1ccccc1C(F)(F)F`, with over 100 µM; and `Cc1ccccc1Nc1nc2c(s1)C(=O)c1ccccc1C2=O`, with 6.65 µM.
Take `Cc1nnc(N/N=C(/C(=O)C(C#N)c2ccccc2)C(C#N)c2ccccc2)n1N` (centres undefined): the TGI was 8.19 µM.
As to `COc1c(Br)cc(Br)c(OC)c1-c1[nH]c(Br)c(Br)c1Br`, the TGI was found to be 21.7 µM.
In the case of `COc1ccc(/C=C2/CCc3cc4ccc(OC)cc4[o+]c32)c(O)c1`, the GI50 is 2.23 µM and the TGI was found to be 5.09 µM.
For `OB1OCc2cc(/C=C/c3cccc(C(F)(F)F)c3)ccc21`, in that order: 1.57 µM and over 100 µM.
For `CCOC(=O)c1ccc(N[C@@H]2c3cc4c(cc3C(C3=CC(=O)C(=O)C(OC)=C3)[C@H]3C(=O)OCC32)OCO4)cc1` (some centres undefined), the TGI was found to be 20.1 µM.
As for `CNC(SC)=C1C(=O)OC(C)(C)OC1=O`, the TGI is 38.5 µM.
On the same count and under the same terms, for `CC(=O)NNc1nc(C)c(C(=O)NNC(=O)C(=O)Nc2nc3ccc([N+](=O)[O-])cc3s2)s1` the value was over 100 µM.
Take `O=C(/C=C/c1ccccc1)CC(c1ccccc1)N1CCOCC1` (centres undefined): the GI50 was 2.33 µM and the TGI came out at 4.91 µM.
For `Cc1nc(Nc2n[nH]c3c2CN(C(=O)N[C@H](CN(C)C)c2ccccc2)C3(C)C)c2sccc2n1`, the GI50 is 0.0244 µM and 0.0346 µM; the TGI is over 38.7 µM.
Consider `CC(=O)OC1COC(n2c(=S)n(-c3ccccc3)c(=O)c3cc(Br)ccc32)C(OC(C)=O)C1OC(C)=O` (centres undefined), for which the TGI was over 100 µM.
In turn, `CC1=C(C(=O)Nc2ccccc2C)C(/C=C/c2ccccc2)C(C(=O)Nc2ccccc2C)=C(C)N1` came in with a TGI of over 100 µM.
Still for that read-out and setting: then `COc1cc2cnc3c4ccccc4ccc3c2cc1OC`, with over 100 µM.
In the case of `O=S(=O)(CCOCc1ccc(-c2ccc3ncnc(Nc4ccc(OCc5cccc(F)c5)c(Cl)c4)c3c2)o1)c1ccccc1`, the GI50 was over 25 µM and the TGI is over 25 µM.
